According to ChEMBL document CHEMBL4715821, “Discovery of 4-ethoxy-7H-pyrrolo[2,3-d]pyrimidin-2-amines as potent, selective and orally bioavailable LRRK2 inhibitors” (Bioorg Med Chem Lett, 2018):

Key:
[1] = target: Cyclin-Y/Cyclin-dependent kinase 16 (Homo sapiens) (UniProt Q00536+Q8ND76); experiment: Inhibition of CDK16/Cyclin Y (unknown origin) assessed as residual activity at 1 uM by Kinomescan method relative to control; format: protein-complex assay
[2] = target: Insulin receptor-related protein (Homo sapiens) (UniProt P14616); experiment: Inhibition of wild-type human partial length INSRR (R950 to E1278 residues) expressed in bacterial expression system assessed as residual activity at 1 uM by Kinomescan method relative to control
[3] = target: Calcium/calmodulin-dependent protein kinase type II subunit beta (Homo sapiens) (UniProt Q13554); experiment: Inhibition of wild-type human partial length CAMK2B (M1 to Q380 residues) expressed in bacterial expression system assessed as residual activity at 1 uM by Kinomescan method relative to control
[4] = target: Ephrin type-B receptor 2 (Homo sapiens) (UniProt P29323); experiment: Inhibition of wild-type human partial length EPHB2 (I597 to L902 residues) expressed in bacterial expression system assessed as residual activity at 1 uM by Kinomescan method relative to control
Chain of Ephrin type-B receptor 2 (Homo sapiens) (P29323 whole entry, the tested form may be a part): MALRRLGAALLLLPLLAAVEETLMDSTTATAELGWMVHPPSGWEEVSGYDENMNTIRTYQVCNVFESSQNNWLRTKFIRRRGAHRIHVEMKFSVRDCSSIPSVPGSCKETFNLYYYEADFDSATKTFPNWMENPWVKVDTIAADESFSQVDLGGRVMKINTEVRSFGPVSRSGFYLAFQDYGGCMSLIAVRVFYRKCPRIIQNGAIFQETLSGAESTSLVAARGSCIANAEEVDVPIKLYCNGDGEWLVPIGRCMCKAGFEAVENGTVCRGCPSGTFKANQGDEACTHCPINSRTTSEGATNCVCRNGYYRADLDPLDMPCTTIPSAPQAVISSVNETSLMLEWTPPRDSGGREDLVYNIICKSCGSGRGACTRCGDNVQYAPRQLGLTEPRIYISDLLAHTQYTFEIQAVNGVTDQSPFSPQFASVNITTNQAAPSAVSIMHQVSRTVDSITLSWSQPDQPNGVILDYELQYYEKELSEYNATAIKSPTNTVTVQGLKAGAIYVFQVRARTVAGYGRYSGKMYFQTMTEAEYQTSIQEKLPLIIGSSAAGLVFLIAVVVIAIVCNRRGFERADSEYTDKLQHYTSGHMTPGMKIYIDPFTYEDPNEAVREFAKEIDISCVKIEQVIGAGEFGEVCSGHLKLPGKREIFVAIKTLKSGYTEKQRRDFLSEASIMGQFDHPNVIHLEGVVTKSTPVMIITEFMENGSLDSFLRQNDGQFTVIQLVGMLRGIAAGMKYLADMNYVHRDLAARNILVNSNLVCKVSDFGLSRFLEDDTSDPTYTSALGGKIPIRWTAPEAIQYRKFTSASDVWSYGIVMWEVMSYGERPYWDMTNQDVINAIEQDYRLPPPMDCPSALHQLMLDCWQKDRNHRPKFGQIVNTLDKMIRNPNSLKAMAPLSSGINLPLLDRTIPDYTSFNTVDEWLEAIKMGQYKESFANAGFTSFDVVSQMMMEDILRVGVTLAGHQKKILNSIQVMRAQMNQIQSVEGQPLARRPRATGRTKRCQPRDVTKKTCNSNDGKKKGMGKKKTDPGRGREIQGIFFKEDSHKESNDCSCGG

[5] = Unbound fraction in human serum; format: ADME, cell-free
[6] = target: Leucine-rich repeat serine/threonine-protein kinase 2 (Homo sapiens, UniProt Q5S007); experiment: Inhibition of LRRK2 in human AHE cells assessed as reduction in Ser935 phosphorylation; format: cell-based, Lymphoblastoid cell
[7] = target: Mitogen-activated protein kinase kinase kinase kinase 2 (Homo sapiens) (UniProt Q12851); experiment: Inhibition of wild-type human partial length MAP4K2 (M1 to G318 residues) expressed in mammalian expression system assessed as residual activity at 1 uM by Kinomescan method relative to control
Chain of Mitogen-activated protein kinase kinase kinase kinase 2 (Homo sapiens) (Q12851 whole entry, the tested form may be a part): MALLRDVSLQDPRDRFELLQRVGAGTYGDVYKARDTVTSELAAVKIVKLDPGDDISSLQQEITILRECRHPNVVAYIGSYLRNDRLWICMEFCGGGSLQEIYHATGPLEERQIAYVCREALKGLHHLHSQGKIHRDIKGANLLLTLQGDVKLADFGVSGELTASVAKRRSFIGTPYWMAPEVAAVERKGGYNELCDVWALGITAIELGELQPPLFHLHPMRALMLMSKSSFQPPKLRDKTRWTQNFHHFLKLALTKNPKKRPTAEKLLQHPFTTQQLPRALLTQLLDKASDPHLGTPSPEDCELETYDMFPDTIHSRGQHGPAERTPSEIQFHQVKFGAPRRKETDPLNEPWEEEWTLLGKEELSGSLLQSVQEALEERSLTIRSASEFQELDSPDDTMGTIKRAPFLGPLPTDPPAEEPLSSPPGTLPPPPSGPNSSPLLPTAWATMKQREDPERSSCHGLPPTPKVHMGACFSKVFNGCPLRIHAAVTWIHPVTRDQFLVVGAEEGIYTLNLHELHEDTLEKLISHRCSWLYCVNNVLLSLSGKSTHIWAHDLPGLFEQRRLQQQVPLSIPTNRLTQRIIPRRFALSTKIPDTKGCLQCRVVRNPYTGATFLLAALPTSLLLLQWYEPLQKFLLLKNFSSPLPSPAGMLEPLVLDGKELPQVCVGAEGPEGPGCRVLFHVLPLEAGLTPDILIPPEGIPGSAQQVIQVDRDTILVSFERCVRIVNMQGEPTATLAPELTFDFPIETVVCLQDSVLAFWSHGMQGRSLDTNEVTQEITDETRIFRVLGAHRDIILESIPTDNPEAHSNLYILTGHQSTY

[8] = target: Serine/threonine-protein kinase WNK2 (Homo sapiens) (UniProt Q9Y3S1); experiment: Inhibition of wild-type human partial length WNK2 (V47 to D482 residues) expressed in mammalian expression system assessed as residual activity at 1 uM by Kinomescan method relative to control
[9] = target: Death-associated protein kinase 1 (Homo sapiens) (UniProt P53355); experiment: Inhibition of wild-type human partial length DAPK1 (M1 to F296 residues) expressed in bacterial expression system assessed as residual activity at 1 uM by Kinomescan method relative to control
Chain of Death-associated protein kinase 1 (Homo sapiens) (P53355 whole entry, looked up, the tested form may be a part): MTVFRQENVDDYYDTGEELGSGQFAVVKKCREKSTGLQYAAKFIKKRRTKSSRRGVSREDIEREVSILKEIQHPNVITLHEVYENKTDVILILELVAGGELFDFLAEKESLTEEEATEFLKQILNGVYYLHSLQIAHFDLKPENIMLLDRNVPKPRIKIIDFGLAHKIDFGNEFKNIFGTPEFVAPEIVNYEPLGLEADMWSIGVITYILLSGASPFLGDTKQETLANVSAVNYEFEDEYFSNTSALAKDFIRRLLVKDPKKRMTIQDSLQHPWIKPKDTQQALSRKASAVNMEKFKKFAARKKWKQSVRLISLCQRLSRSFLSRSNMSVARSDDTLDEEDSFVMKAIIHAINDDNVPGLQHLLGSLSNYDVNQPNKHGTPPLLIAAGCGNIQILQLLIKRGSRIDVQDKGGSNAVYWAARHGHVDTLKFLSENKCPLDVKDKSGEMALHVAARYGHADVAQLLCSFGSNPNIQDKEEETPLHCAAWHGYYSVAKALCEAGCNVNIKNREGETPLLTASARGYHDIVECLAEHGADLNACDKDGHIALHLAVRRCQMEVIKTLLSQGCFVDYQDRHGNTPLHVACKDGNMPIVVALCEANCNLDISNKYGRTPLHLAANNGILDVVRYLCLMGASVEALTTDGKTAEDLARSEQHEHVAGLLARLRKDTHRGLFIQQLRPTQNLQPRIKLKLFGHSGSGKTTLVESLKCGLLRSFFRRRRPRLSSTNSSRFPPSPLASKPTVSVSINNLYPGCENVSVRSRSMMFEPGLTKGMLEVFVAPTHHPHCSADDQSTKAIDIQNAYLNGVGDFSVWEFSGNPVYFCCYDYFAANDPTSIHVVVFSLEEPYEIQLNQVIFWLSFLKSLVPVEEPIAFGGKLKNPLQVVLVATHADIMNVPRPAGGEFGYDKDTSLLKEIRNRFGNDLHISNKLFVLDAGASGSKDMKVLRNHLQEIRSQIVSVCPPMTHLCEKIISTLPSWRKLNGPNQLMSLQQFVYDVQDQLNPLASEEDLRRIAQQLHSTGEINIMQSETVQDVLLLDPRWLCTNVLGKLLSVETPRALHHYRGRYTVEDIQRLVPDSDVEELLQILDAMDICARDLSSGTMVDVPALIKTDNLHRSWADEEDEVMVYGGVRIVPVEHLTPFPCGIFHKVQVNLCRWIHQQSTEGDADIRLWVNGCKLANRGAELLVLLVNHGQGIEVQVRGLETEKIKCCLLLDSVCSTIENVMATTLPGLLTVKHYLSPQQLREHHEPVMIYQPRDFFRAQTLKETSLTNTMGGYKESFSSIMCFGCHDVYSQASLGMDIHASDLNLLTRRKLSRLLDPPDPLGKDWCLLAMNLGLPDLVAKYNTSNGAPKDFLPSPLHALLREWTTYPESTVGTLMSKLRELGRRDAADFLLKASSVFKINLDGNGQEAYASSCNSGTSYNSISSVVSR

[10] = target: Serine/threonine-protein kinase TBK1 (Homo sapiens) (UniProt Q9UHD2); experiment: Inhibition of wild-type human full length TBK1 (M1 to L729 residues) expressed in mammalian expression system assessed as residual activity at 1 uM by Kinomescan method relative to control
Chain of Serine/threonine-protein kinase TBK1 (Homo sapiens) (Q9UHD2 whole entry, the tested form may be a part): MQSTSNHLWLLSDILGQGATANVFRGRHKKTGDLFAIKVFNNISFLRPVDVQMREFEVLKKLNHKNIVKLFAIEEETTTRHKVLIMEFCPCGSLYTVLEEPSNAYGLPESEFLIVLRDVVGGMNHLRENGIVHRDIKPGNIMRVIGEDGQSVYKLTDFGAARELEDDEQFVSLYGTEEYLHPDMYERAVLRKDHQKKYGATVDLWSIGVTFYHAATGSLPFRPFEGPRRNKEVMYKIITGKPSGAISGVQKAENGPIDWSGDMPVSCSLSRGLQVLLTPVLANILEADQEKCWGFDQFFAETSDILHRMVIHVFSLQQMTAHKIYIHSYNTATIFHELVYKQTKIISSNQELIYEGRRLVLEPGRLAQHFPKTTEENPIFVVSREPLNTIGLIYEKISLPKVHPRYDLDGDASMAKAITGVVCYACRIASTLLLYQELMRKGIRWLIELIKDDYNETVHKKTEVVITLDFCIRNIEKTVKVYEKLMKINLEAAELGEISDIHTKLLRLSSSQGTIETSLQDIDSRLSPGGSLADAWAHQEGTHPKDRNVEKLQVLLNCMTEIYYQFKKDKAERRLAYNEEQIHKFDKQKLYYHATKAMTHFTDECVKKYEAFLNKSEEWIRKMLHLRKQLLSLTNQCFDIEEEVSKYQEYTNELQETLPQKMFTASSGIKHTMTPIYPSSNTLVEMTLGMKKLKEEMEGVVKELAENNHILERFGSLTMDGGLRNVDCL

[11] = target: Mitogen-activated protein kinase kinase kinase 3 (Homo sapiens) (UniProt Q99759); experiment: Inhibition of MEKK3 (unknown origin) assessed as residual activity at 1 uM by Kinomescan method relative to control
[12] = target: Receptor tyrosine-protein kinase erbB-2 (Homo sapiens) (UniProt P04626); experiment: Inhibition of wild-type human partial length ERBB2 (K646 to V1225 residues) expressed in mammalian expression system assessed as residual activity at 1 uM by Kinomescan method relative to control
[13] = target: SRSF protein kinase 3 (Homo sapiens) (UniProt Q9UPE1); experiment: Inhibition of MSSK1 (unknown origin) assessed as residual activity at 1 uM by Kinomescan method relative to control
[14] = target: Serine/threonine-protein kinase PAK 1 (Homo sapiens) (UniProt Q13153); experiment: Inhibition of wild-type human partial length PAK1 (S149 to H545 residues) expressed in bacterial expression system assessed as residual activity at 1 uM by Kinomescan method relative to control
[15] = target: TGF-beta receptor type-2 (Homo sapiens) (UniProt P37173); experiment: Inhibition of wild-type human partial length TGFBR2 (I218 to K567 residues) expressed in bacterial expression system assessed as residual activity at 1 uM by Kinomescan method relative to control
[16] = target: cGMP-dependent protein kinase 2 (Homo sapiens) (UniProt Q13237); experiment: Inhibition of wild-type human partial length PRKG2 (S422 to F762 residues) expressed in mammalian expression system assessed as residual activity at 1 uM by Kinomescan method relative to control
[17] = target: Serine/threonine-protein kinase 4 (Homo sapiens) (UniProt Q13043); experiment: Inhibition of wild-type human full length MST1 (M1 to F487 residues) expressed in bacterial expression system assessed as residual activity at 1 uM by Kinomescan method relative to control
Chain of Serine/threonine-protein kinase 4 (Homo sapiens) (Q13043 whole entry, the tested form may be a part): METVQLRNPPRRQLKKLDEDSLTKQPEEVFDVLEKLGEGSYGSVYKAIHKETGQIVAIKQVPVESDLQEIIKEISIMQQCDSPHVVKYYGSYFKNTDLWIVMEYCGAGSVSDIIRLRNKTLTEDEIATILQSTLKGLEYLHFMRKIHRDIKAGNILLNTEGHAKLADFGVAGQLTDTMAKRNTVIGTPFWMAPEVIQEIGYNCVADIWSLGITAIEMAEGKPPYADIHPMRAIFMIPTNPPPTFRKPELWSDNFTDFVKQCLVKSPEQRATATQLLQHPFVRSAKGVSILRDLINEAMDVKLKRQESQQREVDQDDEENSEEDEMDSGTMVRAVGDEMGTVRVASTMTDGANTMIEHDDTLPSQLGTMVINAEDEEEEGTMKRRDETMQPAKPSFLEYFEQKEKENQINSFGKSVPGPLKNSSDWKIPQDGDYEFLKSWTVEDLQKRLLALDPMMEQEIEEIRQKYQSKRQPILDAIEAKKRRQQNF

[18] = target: T1, Interleukin-1 receptor-associated kinase 4 (Homo sapiens) (UniProt Q9NWZ3); experiment: Inhibition of wild-type human partial length IRAK4 (M1 to S460 residues) expressed in mammalian expression system assessed as residual activity at 1 uM by Kinomescan method relative to control
T1 sequence (whole entry): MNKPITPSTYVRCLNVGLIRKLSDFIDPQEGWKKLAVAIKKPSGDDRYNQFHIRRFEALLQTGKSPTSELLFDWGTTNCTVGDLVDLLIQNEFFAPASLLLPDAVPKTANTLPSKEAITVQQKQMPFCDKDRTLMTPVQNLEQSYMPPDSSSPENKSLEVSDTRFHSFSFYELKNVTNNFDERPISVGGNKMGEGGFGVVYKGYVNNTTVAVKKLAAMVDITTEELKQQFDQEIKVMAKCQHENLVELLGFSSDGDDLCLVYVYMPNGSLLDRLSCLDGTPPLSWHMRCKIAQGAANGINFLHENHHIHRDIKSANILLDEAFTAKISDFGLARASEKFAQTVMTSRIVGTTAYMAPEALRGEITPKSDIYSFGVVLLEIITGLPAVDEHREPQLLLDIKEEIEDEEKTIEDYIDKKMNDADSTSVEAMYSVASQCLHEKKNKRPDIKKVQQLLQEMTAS

[19] = target: Serine/threonine-protein kinase Nek2 (Homo sapiens) (UniProt P51955); experiment: Inhibition of wild-type human partial length NEK2 (M1 to K309 residues) expressed in bacterial expression system assessed as residual activity at 1 uM by Kinomescan method relative to control
Chain of Serine/threonine-protein kinase Nek2 (Homo sapiens) (P51955 whole entry, the tested form may be a part): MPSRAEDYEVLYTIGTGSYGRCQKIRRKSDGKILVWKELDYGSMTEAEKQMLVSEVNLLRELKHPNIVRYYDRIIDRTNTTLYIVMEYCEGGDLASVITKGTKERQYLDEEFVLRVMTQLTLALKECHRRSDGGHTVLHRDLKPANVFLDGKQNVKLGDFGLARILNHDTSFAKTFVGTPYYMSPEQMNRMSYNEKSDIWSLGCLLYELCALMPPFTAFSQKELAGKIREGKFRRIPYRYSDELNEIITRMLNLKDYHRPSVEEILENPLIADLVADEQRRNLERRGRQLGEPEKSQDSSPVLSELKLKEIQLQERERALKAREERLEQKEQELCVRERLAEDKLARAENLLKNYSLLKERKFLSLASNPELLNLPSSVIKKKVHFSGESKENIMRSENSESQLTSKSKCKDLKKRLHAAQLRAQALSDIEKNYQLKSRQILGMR

[20] = target: Ribosomal protein S6 kinase beta-1 (Homo sapiens) (UniProt P23443); experiment: Inhibition of wild-type human partial length RPS6KB1 (M1 to S421 residues) expressed in mammalian expression system assessed as residual activity at 1 uM by Kinomescan method relative to control
[21] = target: Serine/threonine-protein kinase DCLK1 (Homo sapiens) (UniProt O15075); experiment: Inhibition of wild-type human partial length DCAMKL1 (L270 to A662 residues) expressed in mammalian expression system assessed as residual activity at 1 uM by Kinomescan method relative to control
[22] = target: Dual specificity tyrosine-phosphorylation-regulated kinase 3 (Homo sapiens) (UniProt O43781); experiment: Inhibition of DYRK3 (unknown origin) assessed as residual activity at 1 uM by Kinomescan method relative to control
[23] = target: Testis-specific serine/threonine-protein kinase 1 (Homo sapiens) (UniProt Q9BXA7); experiment: Inhibition of wild-type human full length TSSK1B (M1 to Q367 residues) expressed in bacterial expression system assessed as residual activity at 1 uM by Kinomescan method relative to control
[24] = target: Protein kinase C beta type (Homo sapiens) (UniProt P05771); experiment: Inhibition of PKCbeta2 (unknown origin) assessed as residual activity at 1 uM by Kinomescan method relative to control

`CCOc1nc(Nc2ccc(C(=O)N3CCOCC3)cc2OC)nc2[nH]ccc12` showed an Activity [1] of 105%, an Activity [2] of 2.52% and an Activity [3] of 92.6%. For the same molecule, the Activity [4] was 95.3%, the fraction unbound [5] was 0.059 and the IC50 [6] was 31.6 nM. The Activity [7] was 90.2%, the Activity [8] was 90.4% and the Activity [9] was 64.9%. It also gave an Activity [10] of 91.7%, an Activity [11] of 97% and an Activity [12] of 110%. It also gave an Activity [13] of 78.1%, an Activity [14] of 95.3% and an Activity [15] of 104%. The Activity [16] was 104%, the Activity [17] was 99.8% and the Activity [18] was 104%. It also gave an Activity [19] of 96.1%, an Activity [20] of 104% and an Activity [21] of 86.5%. For the same molecule, the Activity [22] was 96.4%, the Activity [23] was 2.41% and the Activity [24] was 89.1%.
